Measured values reported in ChEMBL document CHEMBL5576118, “Structure of Designer Antibody-like Peptides Binding to the Human C5a with Potential to Modulate the C5a Receptor Signaling” (J Med Chem, 2024).
Active and inactive are the calls of the source. The calls are words filed in the database; no cut-off is given here.

Legend:
[1] = biological target: T1, Complement C5 (Homo sapiens, UniProt P01031); assay: Binding affinity to C5a (unknown origin) assessed as dissociation constant incubated for 1 hr by CD analysis
[2] = biological target: T1, Complement C5; assay: Binding affinity to C5a (unknown origin) assessed as dissociation constant by fluorescence quenching analysis
[3] = biological target: T1, Complement C5; assay: Binding affinity to C5a (unknown origin) assessed as change in near-UV CD signature at 50 uM; conditions: filed as modulator
[4] = biological target: T1, Complement C5; assay: Binding affinity to C5a (unknown origin) at 10 uM by FT-IR analysis; conditions: filed as modulator
[5] = biological target: T1, Complement C5; assay: Binding affinity to C5a (unknown origin) at 2 mM by 1H NMR analysis; conditions: filed as modulator
[6] = biological target: T2, C5a anaphylatoxin chemotactic receptor 1 (Homo sapiens, UniProt P21730); assay: Binding affinity to N-terminal peptide SR3 of C5aR1 (1 to 28 residues)(unknown origin) assessed as dissociation constant by fluorescence based analysis
T2 sequence (P21730 whole entry): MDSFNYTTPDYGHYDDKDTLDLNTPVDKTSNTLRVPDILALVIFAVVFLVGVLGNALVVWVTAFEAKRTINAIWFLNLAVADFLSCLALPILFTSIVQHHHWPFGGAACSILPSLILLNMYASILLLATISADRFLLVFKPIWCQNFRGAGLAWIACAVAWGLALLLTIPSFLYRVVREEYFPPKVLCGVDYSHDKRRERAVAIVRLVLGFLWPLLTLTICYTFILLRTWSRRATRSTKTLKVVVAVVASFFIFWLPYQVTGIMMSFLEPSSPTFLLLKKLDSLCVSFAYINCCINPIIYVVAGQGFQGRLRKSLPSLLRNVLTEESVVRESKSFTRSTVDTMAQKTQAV

[7] = biological target: T2, C5a anaphylatoxin chemotactic receptor 1; assay: Binding affinity to N-terminal peptide SR5 of C5aR1 (1 to 28 residues)(unknown origin) assessed as dissociation constant by fluorescence based analysis
[8] = biological target: T3, C5a anaphylatoxin chemotactic receptor 2 (Homo sapiens, UniProt Q9P296); assay: Binding affinity to N-terminal peptide SR12 of C5aR2 (6 to 32 residues)(unknown origin) assessed as dissociation constant by fluorescence based analysis
T3 sequence (Q9P296 whole entry, the tested form may be a part): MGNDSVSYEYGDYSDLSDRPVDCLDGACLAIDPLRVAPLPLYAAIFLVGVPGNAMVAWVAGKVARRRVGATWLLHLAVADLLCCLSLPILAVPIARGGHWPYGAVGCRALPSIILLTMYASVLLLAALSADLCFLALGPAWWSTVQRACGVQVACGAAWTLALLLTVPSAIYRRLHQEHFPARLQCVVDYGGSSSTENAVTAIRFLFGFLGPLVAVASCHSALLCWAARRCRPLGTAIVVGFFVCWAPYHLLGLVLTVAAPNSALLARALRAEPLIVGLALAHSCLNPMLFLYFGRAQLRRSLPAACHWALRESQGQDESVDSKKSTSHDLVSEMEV

[9] = biological target: T3, C5a anaphylatoxin chemotactic receptor 2; assay: Binding affinity to N-terminal peptide SR13 of C5aR2 (14 to 32 residues)(unknown origin) assessed as dissociation constant by fluorescence based analysis
[10] = biological target: trypsin (Homo sapiens, UniProt P07477+P07478+P35030); assay: Induction of trypsin (unknown origin)-mediated proteolysis of compound incubated for 4 hrs by LC-HRMS spectroscopy; type: protein assay; conditions: trypsin (enzyme incubation), read-out: Activity
[11] = test system: HEK293; assay: Cytotoxicity against human HEK293 cells assessed as cellular viability at 0.19 to 100 uM incubated for 18 hrs by MTT assay; type: toxicity, cell-based; conditions: hek293, 18 h, dose 0.19-100 µM
[12] = test system: HeLa; assay: Cytotoxicity against human HeLa cells assessed as cellular viability at 0.19 to 100 uM incubated for 18 hrs by MTT assay; type: toxicity, cell-based; conditions: dose 0.19-100 µM
[13] = test system: Erythrocyte; assay: Hemolytic activity against human erythrocytes at 0.19 to 100 uM incubated for 1 hr by absorbance based assay; type: toxicity, cell-based; conditions: dose 0.19-100 µM
[14] = biological target: T1, Complement C5; assay: Binding affinity to C5a (unknown origin) assessed as tryptophan lifetime by TCSPC analysis (reference value: 2.70 +/- 0.03 nanoseconds); conditions: filed as modulator

Kd [1] [nM] | Kd [2] [nM] | Activity [3] | Activity [4] | Activity [5] | metabolised at 4 h [10] [%] | Time [14] [nanoseconds] | Compound | Kd [6] [nM] | Kd [7] [nM] | Kd [8] [nM] | Kd [9] [nM] | Activity [11] | Activity [12] | Activity [13]
700 | 880 | Active | Active | Active | 0 |  | CC[C@H](C)[C@H](NC(=O)[C@H](CO)NC(=O)[C@@H](CCC(=O)O)NC(=O)[C@H](CCCNC(=N)N)NC(=O)[C@@H]1CCCN1C(=O)[C@@H](Cc1ccccc1)NC(=O)[C@H](CC(=O)O)NC(=O)[C@@H](CCCNC(=N)N)NC(=O)[C@H](CCCCN)NC(=O)[C@H](Cc1c[nH]c2ccccc12)NC(=O)[C@H](CCSC)NC(=O)[C@@H](CCC(=O)O)NC(=O)[C@H](CC(=O)O)NC(=O)[C@H](CC(C)C)NC(=O)CNC(=O)[C@H]1CCCN1C(=O)[C@H](Cc1ccc(O)cc1)NC(=O)[C@H](CCC(N)=O)NC(=O)[C@@H](CC(=O)O)NC(=O)[C@H](CCCNC(=N)N)NC(=O)[C@@H](NC(=O)[C@H](Cc1cnc[nH]1)NC(=O)[C@@H](CCC(=O)O)NC(=O)[C@H](CC(N)=O)NC(=O)[C@H](CC(C)C)NC(C)=O)C(C)C)C(=O)N[C@@H](CCCNC(=N)N)C(=O)N[C@H](C(=O)N[C@@H](Cc1cnc[nH]1)C(=O)N[C@H](C(=O)N[C@@H](C)C(N)=O)[C@@H](C)O)[C@@H](C)O | 126 | 105 | 203 | 299 | Non-Toxic | Non-Toxic | Non-Toxic
940 | 820 | Active | Active | Active |  | 1.99 | CC[C@H](C)[C@H](NC(=O)[C@H](CO)NC(=O)[C@H](CCC(=O)O)NC(=O)[C@H](CCCNC(=N)N)NC(=O)[C@@H]1CCCN1C(=O)[C@H](Cc1ccccc1)NC(=O)[C@H](CC(=O)O)NC(=O)[C@H](CCCNC(=N)N)NC(=O)[C@H](CCCCN)NC(=O)[C@H](Cc1c[nH]c2ccccc12)NC(=O)[C@H](CCSC)NC(=O)[C@H](CCC(=O)O)NC(=O)[C@H](CC(=O)O)NC(=O)[C@H](CC(C)C)NC(=O)CNC(=O)[C@@H]1CCCN1C(=O)[C@H](Cc1ccc(O)cc1)NC(=O)[C@H](CCC(N)=O)NC(=O)[C@H](CC(=O)O)NC(=O)[C@H](CCCNC(=N)N)NC(=O)[C@@H](NC(=O)[C@H](Cc1cnc[nH]1)NC(=O)[C@H](CCC(=O)O)NC(=O)[C@H](CC(N)=O)NC(=O)[C@H](CC(C)C)NC(C)=O)C(C)C)C(=O)N[C@@H](CCCNC(=N)N)C(=O)N[C@H](C(=O)N[C@@H](Cc1cnc[nH]1)C(=O)N[C@H](C(=O)N[C@@H](C)C(N)=O)[C@@H](C)O)[C@@H](C)O | 126 | 105 | 203 | 299 | Non-Toxic | Non-Toxic | Non-Toxic
